Test system: double transgenic rats over-expressing both, the gene for human renin and the gene for human angiotensinogen
Assay: Urinary albumin excretion (albuminuria) in double transgenic rat model of malignant hypertension with renal complications
Format: in vivo
Description: An animal model for spontaneously malignant hypertension with renal complications is represented by double transgenic rats over-expressing both, the gene for human renin and the gene for human angiotensinogen. This double transgenic rat strain is produced by crossbreeding two transgenic strains, one for human angiotensinogen with the endogenous promoter and one for human renin with the endogenous promoter. Neither single transgenic strain is hypertensive. […] The fact that human renin can be studied in the rat is a unique feature of this model and allows the extrapolation to clinical high renin hypertension. […] Each agent can be tested over a wide range of dosages to determine the optimal drug level for each agent in combination to elicit the maximal response. Each study group is best performed in which the effects of the combination treatment group are determined at the same time as the individual components are evaluated. Although drug effects may be observed upon short term treatment, it is preferable to observe responses in a chronic setting as shown below in which experiments were done over a three to seven week observation period. The long-term duration study is of sufficient duration to allow for the full development of compensatory responses to occur and therefore, the observed effect will most likely depict the actual responses of the test system representing sustained or persistent effects. The combination therapy can be compared to that of the respective monotherapies by determining the maximum change in 24 hour urinary protein content at a given day. All values are represented as the group mean±standard error of the mean (SEM). Statistical significance is obtained when p<0.05. The albuminuria values for each of the treatment groups can be compared statistically using a one-way ANOVA followed by the appropriate post-hoc analysis, for example by performing a Bonferoni test. Four week old double transgenic rats were treated daily by oral gavage with SPP100/aliskiren at a dose of 10 mg/kg, SPP301/avosentan at doses of 10 and 30 mg/kg and combinations of SPP100/aliskiren with SPP301/avosentan at the same doses. After three, five and seven weeks of drug treatment, 24 hour urine samples are collected using metabolic cages. The urinary albumin content is measured by ELISA using a commercial kit ([…] GmbH, Luckenwalde, Germany).

Compound	Albuminuria: mean ± SEM (SPP100 10 mg/kg daily oral gavage, Baseline, 24 h urine, ELISA) [ug/24 h]	Albuminuria: mean ± SEM (SPP100 10 mg/kg daily oral gavage, treatment week 3) [ug/24 h]	Albuminuria: mean ± SEM (SPP100 10 mg/kg daily oral gavage, treatment week 5) [ug/24 h]	Albuminuria: mean ± SEM (SPP100 10 mg/kg daily oral gavage, treatment week 7) [ug/24 h]	mean urinary albumin excretions (SPP100/aliskiren 10 mg/kg daily oral, after seven weeks of treatment)	Albuminuria: mean ± SEM (SPP301 10 mg/kg daily oral gavage, Baseline) [ug/24 h]	Albuminuria: mean ± SEM (SPP301 10 mg/kg daily oral gavage, treatment week 3) [ug/24 h]	Albuminuria: mean ± SEM (SPP301 10 mg/kg daily oral gavage, treatment week 5) [ug/24 h]	Albuminuria: mean ± SEM (SPP301 10 mg/kg daily oral gavage, treatment week 7) [ug/24 h]	Albuminuria: mean ± SEM (SPP301 30 mg/kg daily oral gavage, Baseline) [ug/24 h]	Albuminuria: mean ± SEM (SPP301 30 mg/kg daily oral gavage, treatment week 3) [ug/24 h]	Albuminuria: mean ± SEM (SPP301 30 mg/kg daily oral gavage, treatment week 5) [ug/24 h]	Albuminuria: mean ± SEM (SPP301 30 mg/kg daily oral gavage, treatment week 7) [ug/24 h]	urinary albumin contents (SPP301/avosentan at 10 or 30 mg/kg daily dosing) [mg]
COCCCOc1cc(C[C@@H](C[C@H](N)[C@@H](O)C[C@H](C(=O)NCC(C)(C)C(N)=O)C(C)C)C(C)C)ccc1OC [SPP100, aliskiren]	469 ± 64	3046 ± 734	12356 ± 3194	22268 ± 5067	up to 22.3 mg	–	–	–	–	–	–	–	–	–
COc1ccccc1Oc1c(NS(=O)(=O)c2ccc(C)cn2)nc(-c2ccncc2)nc1OC [SPP301, 5-methyl-pyridine-2-sulfonic acid [6-methoxy-5-(2-methoxy-phenoxy)-2-pyridin-4-yl-pyrimidin-4-yl]-amide]	–	–	–	–	–	422 ± 128	14213 ± 4658	38936 ± 7988	38980 ± 9642	413 ± 151	11824 ± 2343	43160 ± 10250	37416 ± 16057	≤ 39

Reference: patent US20100173919A1, “PHARMACEUTICAL COMPOSITION USING ALISKIREN AND AVOSENTAN” (priority 2006, published 2010)
